From publication PMC9712658, “Structural analysis of the 2-oxoglutarate binding site of the circadian rhythm linked oxygenase JMJD5” (Scientific Reports, 2022) come the findings set out here.

Each structure is given as a SMILES string.

As a reminder, the IC50 is the concentration at which inhibition is half-maximal.

In one test the target is T1, full-length JMJD5 (aa 1–416, JMJD5^FL) (Homo sapiens, UniProt Q8N371).
T1 construct: 10 µM full-length JMJD5 (aa 1–416); His6 (N); made in house; host or cells: Escherichia coli Rosetta2(DE3)-pLysS
T1 sequence (Q8N371 whole entry, the tested form may be a part): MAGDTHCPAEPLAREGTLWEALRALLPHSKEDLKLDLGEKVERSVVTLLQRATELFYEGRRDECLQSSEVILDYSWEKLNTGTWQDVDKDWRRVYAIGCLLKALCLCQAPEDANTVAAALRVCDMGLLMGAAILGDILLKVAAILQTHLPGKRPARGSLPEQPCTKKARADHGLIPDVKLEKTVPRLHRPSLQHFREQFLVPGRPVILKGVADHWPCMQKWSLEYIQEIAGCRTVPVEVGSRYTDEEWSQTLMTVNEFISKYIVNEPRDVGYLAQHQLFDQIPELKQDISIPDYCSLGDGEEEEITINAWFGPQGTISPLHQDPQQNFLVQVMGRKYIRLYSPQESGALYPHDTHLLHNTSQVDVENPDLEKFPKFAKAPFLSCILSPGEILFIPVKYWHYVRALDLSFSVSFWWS
As to the kind of experiment: JMJD5 inhibition assay by MALDI-TOF MS (hydroxylation of RpS6_129-144 peptide). As to conditions: 10 µM JMJD5^FL, 100 µM Fe(II), 400 µM ascorbate, 50 µM 2OG, 100 µM RpS6_129-144, inhibitor 0–10 mM; mean (n = 3) ± SD. Type of test: biochemical. From the text:
To explore inhibition involving orthosteric 2OG ligand binding in the JMJD5 2OG pocket, we initially screened a focused set of compounds comprising relatively close 2OG mimetics, tricarboxylic acid (TCA) cycle intermediates, hypoxia inducible factor (HIF) prolyl hydroxylase (PHD) inhibitors, and JmjC histone demethylase (KDM) inhibitors (Supplementary Fig. S1).
[…] Hydroxylation of RpS6 peptide was monitored by MALDI-TOF MS and intensity of hydroxylated peak was quantified to determine the extent of inhibition caused by inhibitor.
Compound `CN(C)CCCNC(=O)c1ccc(-c2cc(O)c3ncccc3c2)cc1` [ML-324] showed an IC50 of 15 ± 1.4 µM.

Compound `O=C(O)CNC(=O)c1ncc(-c2cccc(F)c2)cc1O` [AKB-6899] registered an IC50 of 288 ± 1.5 µM.

For the compound `O=C(O)CCC(=O)O` [Succinate], half-maximal inhibition (IC50) required 840 ± 1.4 µM.

The compound `O=C(O)CNC(=O)C(=O)O` [NOG, N-oxalylglycine] gave an IC50 of 6 ± 1.4 µM.

On to `O=C(O)CC[C@H](O)C(=O)O` [L-2HG, L-2-hydroxyglutarate], for which the IC50 came to 340 ± 1.3 µM.

Consider `CCN(CCN(C)C)C(=O)CNCc1cc(C(=O)O)ccn1` [KDM5-C49], for which inhibition was half-maximal at 621 ± 1.4 µM (IC50).

In turn, `O=C(O)CC(O)C(=O)O` (stereo not shown) [Malate] gave an IC50 of 1604 ± 1.4 µM.

Turning to `O=C(O)CC(O)(CC(=O)O)C(=O)O` [Citrate], 820 ± 1.8 µM corresponded to half-maximal inhibition (IC50).

Compound `O=C(O)CC[C@@H](O)C(=O)O` [D-2HG, D-2-hydroxyglutarate] displayed an IC50 of 1268 ± 1.5 µM. Against the preceding compound, the IC50 is about 1.5-fold higher.

Regarding `O=C(O)c1ccnc(-c2cc(C(=O)O)ccn2)c1` [2.4-BPDCA, bipyridinyl-2,4-dicarboxylate], the IC50 came out at 66 ± 1.5 µM. Against the preceding compound, the IC50 is about 19-fold lower.

For the compound `O=C(O)CCNc1cc(N2CCc3ccccc3CC2)nc(-c2ccccn2)n1` [GSK-J1], the IC50 was 67 ± 1.5 µM.

With `Cc1nc(C(=O)NCC(=O)O)c(O)c2ccc(Oc3ccccc3)cc12` [FG4592], 239 ± 1.9 µM corresponded to half-maximal inhibition (IC50).

`O=C(O)c1ccc(O)c2ncccc12` [IOX1, 5-carboxy-8-hydroxyquinoline] had an IC50 of 96 ± 1.7 µM. This IC50 is about 2.5-fold lower than that of the compound before.

With `O=C(O)CC(=O)C(=O)O` [Oxaloacetate], the IC50 amounted to 85 ± 1.4 µM.

Regarding `CC(=O)C(=O)O` [Pyruvate], the IC50 is 500 ± 1.6 µM.

The same test, now with this note: screen at 0.1, 1 and 10 mM and/or IC50 determination.
As for `CN(C)NC(=O)CCC(=O)O` [daminozide], the “JMJD5 inhibition (in words)” value was “Neither daminozide (a plant growth regulator that inhibits the JmjC KDM 2/7 oxygenases[56]), nor its structural derivative 7 appear to inhibit JMJD5”.
